Data reported in patent publication US20140045744A1, “CULTURED COLLECTION OF GUT MICROBIAL COMMUNITY” (THE WASHINGTON UNIVERSITY, priority 2011, published 2014).

Test system: E. coli MegaX DH10B T1R cells
Type: cell-based, Escherichia coli
Conditions: for MIC: antibiotics used in functional metagenomic selections of E. coli libraries
Source text: To compare further the functions represented in the complete and cultured microbiota independent of annotation, antibiotic-resistance genes were captured from their microbiomes in expression vectors in Escherichia coli. Each E. coli library contained ˜1 GB of 1.5- to 4-kB fragments of microbiome DNA subcloned into an expression vector and was screened against a panel of 15 antibiotics and clinically relevant antibiotic combinations (Table 3). Genes encoding resistance to the same 14 antibiotics were captured in libraries prepared from complete and cultured fecal samples (FIG. 3G and Table 4). In one example, a screen for DNA fragments that confer resistance to the aminoglycoside amikacin produced candidate genes from the microbiomes of both complete and cultured microbial communities from Donor 1 but not from Donor 2. Two genes conferring amikacin resistance (either the 16S rRNA methylase rmtD or the aminoglycoside phosphotransferase aphA-3) were identified in 70% of the DNA fragments captured in selections for this phenotype.
DNA fragments from complete and cultured communities were cloned into an expression vector, electroporated into Escherichia coli, and screened for their ability to confer resistance to 15 different antibiotics. To this end, 10 μg of DNA purified from the two human donors' fecal microbiota, from the derived cultured communities, plus pooled contents of the arrayed strain collection were sheared to 1.5- to 4-kB fragments (Bioruptor XL), followed by size selection (1% agarose gel electrophoresis). Sheared DNA then was endrepaired (Epicentre Endlt Kit), column-purified (Qiagen Qia-Quick PCR Purification Kit), and concentrated in a vacuum evaporator (SpeedVac). […] Approximately 500 ng of the DNA fragments were ligated to 100 ng of the linearized vector in an overnight ligation reaction (Epicentre FastLink Ligation Kit). The ligation reaction was desalted by dialysis in double-distilled H2O and electroporated into E. coli MegaX DH10B T1R cells (Invitrogen). After 1 h of recovery, a small (1 μL) aliquot of the library was titered with serial dilutions onto LB agar plates containing 50 μg/mL kanamycin (to select for pZE21 transformants) and incubated at 37° C. for 16 h. The insert size distribution for each library was characterized by gel electrophoresis of amplicons obtained using primers flanking the HincII site in the multiple cloning site of pZE21 MCS1. The total size of each library was estimated by multiplying average insert size by the number of cfu in a given library. The remainder of the recovered cells was inoculated into 10 mL LB containing 50 μg/mL kanamycin and grown overnight, with shaking, at 27° C. for ˜16 h. The culture subsequently was diluted with an equal volume of LB medium containing 30% glycerol and stored at −80° C. before screening.
For functional selections, 100 μL of each library freezer stock (corresponding to 0.5-1×10^8 cfu) was plated on an LB agar plate containing kanamycin (50 μg/mL) plus one of 15 different antibiotics (Table 3). The total number of cells plated on each antibiotic represented ˜10 copies of each original unique transformant. Antibiotic-resistant colonies were scored after plates had been incubated at 37° C. for 16 h. Inserts contained in colonies with amikacin-, piperacillin- and piperacillin/tazobactam-resistant phenotypes were subjected to bidirectional Sanger sequencing (Beckman Coulter Genomics) using primers pZE21—81—104—57C (5′-[…] GGT-3′; SEQ ID NO 5) and pZE21—151—174rc—58C (5′-[…]-3′; SEQ ID NO 6). Resulting reads were trimmed to remove low-quality and vector sequences and subjected to within-library contig assembly (≧200 bp of 97% ID sequence required). Contigs and unassembled reads were mapped by BLAST to the National Center for Biotechnology Information (NCBI) nonredundant database and to a custom database of 122human gutmicrobial genomes. All sequence datasets have been deposited in the NCBI Sequence Read Archive (SRA) under accession no. […]

Molecule	MIC [µg/mL]	further results
O=C(N[C@H](CO)[C@H](O)c1ccc([N+](=O)[O-])cc1)C(Cl)Cl [Cloramphenicol]	8000	–
CN(C)[C@@H]1C(O)=C(C(N)=O)C(=O)[C@@]2(O)C(O)=C3C(=O)c4c(O)cccc4[C@@](C)(O)[C@H]3[C@H](O)[C@@H]12 [Oxytetracyline]	8000	–
CN(C)[C@@H]1C(=O)C(C(N)=O)=C(O)[C@@]2(O)C(=O)C3=C(O)c4c(O)cccc4[C@@](C)(O)[C@H]3C[C@@H]12 [Tetracyline]	8000	–
Gentamicin	16000	–
Penicillin	128000	–
Piperacillin + Tazobactam	–	MIC (mg/mL), PI of PI + TZ (piperacillin part of the combination): 16 mg/mL; MIC (mg/mL), TZ of PI + TZ (tazobactam part of the combination): 4 mg/mL
Trimethoprim + Sulfamethoxazole	–	MIC (mg/mL), SX of TR + SX (sulfamethoxazole part of the combination): 38 mg/mL; MIC (mg/mL), TR of TR + SX (trimethoprim part of the combination): 2 mg/mL
